In ChEMBL document CHEMBL5729205, “Rho-associated protein kinase inhibitor, pharmaceutical composition comprising same, and preparation method and use thereof” (2022) one finds IC50 data, which are given here for 44 compounds.

Rho-associated protein kinase 2, sequence (O75116 whole entry): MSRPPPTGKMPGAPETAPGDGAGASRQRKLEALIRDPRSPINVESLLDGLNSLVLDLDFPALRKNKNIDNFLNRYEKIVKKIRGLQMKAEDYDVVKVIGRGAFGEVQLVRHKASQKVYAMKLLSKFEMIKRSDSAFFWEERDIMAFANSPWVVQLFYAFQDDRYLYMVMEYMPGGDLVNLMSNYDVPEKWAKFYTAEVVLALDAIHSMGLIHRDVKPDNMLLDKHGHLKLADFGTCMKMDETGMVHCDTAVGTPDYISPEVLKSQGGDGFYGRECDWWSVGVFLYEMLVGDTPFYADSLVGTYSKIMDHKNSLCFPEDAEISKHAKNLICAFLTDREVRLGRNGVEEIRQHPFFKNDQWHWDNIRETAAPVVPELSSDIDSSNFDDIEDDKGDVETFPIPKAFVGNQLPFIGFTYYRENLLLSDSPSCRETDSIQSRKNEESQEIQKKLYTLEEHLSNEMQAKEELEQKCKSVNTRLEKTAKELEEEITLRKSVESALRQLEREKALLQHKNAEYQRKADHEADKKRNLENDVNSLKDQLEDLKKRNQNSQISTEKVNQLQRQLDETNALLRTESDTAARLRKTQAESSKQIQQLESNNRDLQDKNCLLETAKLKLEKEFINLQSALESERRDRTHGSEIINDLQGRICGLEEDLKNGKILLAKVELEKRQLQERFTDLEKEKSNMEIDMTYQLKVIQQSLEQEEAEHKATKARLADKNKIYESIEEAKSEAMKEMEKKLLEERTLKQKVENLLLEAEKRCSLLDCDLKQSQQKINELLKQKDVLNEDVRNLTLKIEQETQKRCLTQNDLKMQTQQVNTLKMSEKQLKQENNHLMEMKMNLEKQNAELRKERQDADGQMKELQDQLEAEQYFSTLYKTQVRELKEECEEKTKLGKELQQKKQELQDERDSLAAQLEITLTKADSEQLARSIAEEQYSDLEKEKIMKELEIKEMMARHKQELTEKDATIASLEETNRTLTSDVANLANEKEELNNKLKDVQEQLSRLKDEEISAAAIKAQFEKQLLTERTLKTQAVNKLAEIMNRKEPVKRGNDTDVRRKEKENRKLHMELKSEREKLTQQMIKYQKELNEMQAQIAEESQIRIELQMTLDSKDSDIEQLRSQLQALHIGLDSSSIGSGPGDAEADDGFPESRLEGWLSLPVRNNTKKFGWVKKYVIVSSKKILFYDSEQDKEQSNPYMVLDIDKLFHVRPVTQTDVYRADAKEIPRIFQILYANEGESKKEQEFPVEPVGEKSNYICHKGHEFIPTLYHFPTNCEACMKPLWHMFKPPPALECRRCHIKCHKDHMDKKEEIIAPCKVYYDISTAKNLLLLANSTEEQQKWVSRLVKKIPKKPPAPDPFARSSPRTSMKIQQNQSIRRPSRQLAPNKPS

This assay addresses Rho-associated protein kinase 2 (Homo sapiens, UniProt O75116). In words: Biological Assay: The kinase IC50 was determined by a commercialized CISBIO kinase detection kit, HTRF KinEASE-STK S2 kit (62ST2PEC). ROCK2 (01-119) employed in the reaction was purchased from Carna Biosciences.Before the assay, the following working solutions as needed were formulated with corresponding reagents according to the instruction of the kinase detection kit: 1×kinase buffer, 5×STK-52 substrate working solution (1.5 μM) and 5×ATP working solution (1.5 μM), 5×ROCK2 kinase working solution, 4×Streptavidin-XL665 working solution, and 4×STK-Ab-Cryptate 2 detection solution. Then the assay was performed according to the following procedure.A solution of a compound at a concentration of 10000 nM was prepared with the 1×kinase buffer containing 2.5% DMSO. Gradient dilution of the solution of the compound was performed with the kinase buffer containing DMSO, so as to obtain solutions of a test compound at 9 different concentrations. In addition to wells of test compounds, a positive well (containing all the reagents except the compound) and a negative well (containing all the reagents except the test compound and kinase) were set. Except for the control wells (positive and negative wells), a solution of a test compound (4 μL) was added to each of the reaction wells, and a solution of 2.5% DMSO was added to the control wells. Then the substrate (2 μM, i.e., 2 μL. 5×STK-S2 substrate working solution) was added to each of the reaction wells. The 5×ROCK2 kinase working solution (2 μL, containing 1.4 ng ROCK2 kinase) was added to each of the reaction wells except for the negative well, the volume of which was made up with the 1×kinase buffer (2 μL). The 5×ATP working solution (2 μL) was added to each of the reaction wells, and the mixtures were incubated at room temperature for 2 hours. After the kinase reaction was complete, the 4×Streptavidin-XL665 working solution was added to each of the reaction wells, the solutions were mixed, followed by immediate addition of the 4×STK-Ab-Cryptate 2 detection solution (5 μL), and the mixtures were incubated at room temperature for 1 hour. The fluorescence signal was read on ENVISION (Perkinelmer) (excitation wavelength: 320 nm, and emission wavelength: 665 nm and 615 nm). The inhibitory rate in each well was calculated based on the fluorescence intensity value: ER (Emission Ratio)=(fluorescence intensity at 665 nm/fluorescence intensity at 615 nm); inhibitory rate=(ERpositive−ERtest compound)/(ERpositive−ERnegative)*100%. Curves were plotted and fitted to obtain the median inhibitory concentration (IC50) of each teat compound with the PRISM 5.0 software.
By IC50 is commonly meant the concentration that gives 50% inhibition. As for `O=C(C1CC(F)(F)C1)N1CCc2cc(-c3nccc(Nc4ccc(-c5cn[nH]c5)cc4)n3)ccc2C1`, the IC50 was 130 nM. With `O=C(C1CC(F)(F)C1)N1CCc2ccc(-c3nccc(Nc4ccc(-c5cn[nH]c5)cc4)n3)cc2C1` the figure was 214 nM; with `CN1Cc2nc(-c3ccc4cc(C(=O)N5CC(F)(F)C5)n(C)c4c3)nc(Nc3ccc(-c4cn[nH]c4)cc3)c2C1`, 14 nM; with `O=C(c1cccnc1)N1Cc2ccc(-c3nccc(Nc4ccc(-c5cn[nH]c5)cc4)n3)cc2C1`, 393 nM. With `Cn1c(C(=O)N2CC(F)(F)C2)cc2ccc(-c3nccc(Nc4ccc(-c5cn[nH]c5)nc4)n3)cc21` the figure was 27 nM; with `Cn1c(C(=O)N2CC(F)(F)C2)cc2ccc(-c3nccc(Nc4ccc(-c5cn[nH]c5)cn4)n3)cc21`, 39 nM; with `O=C(c1cc2ccc(-c3nccc(Nc4ccc5[nH]ncc5c4)n3)cc2[nH]1)N1CC2CNCC2C1` (centres undefined), 412 nM.

Regarding `CC1(C(=O)N2Cc3ccc(-c4nccc(Nc5ccc(-c6cn[nH]c6)cc5)n4)cc3C2)CC(F)(F)C1`, the IC50 was 22 nM. With `O=C(OC1CC(F)(F)C1)N1Cc2ccc(-c3nccc(Nc4ccc5[nH]ncc5c4)n3)cc2C1` the figure was 19 nM; with `O=C(C1CCC(F)(F)CC1)N1CCc2ccc(-c3ncc(F)c(Nc4ccc(-c5cn[nH]c5)cc4)n3)cc2C1`, 477 nM; with `O=C(C1CCOCC1)N1Cc2ccc(-c3ncc(F)c(Nc4ccc(-c5cn[nH]c5)cc4)n3)cc2C1`, 162 nM. Next, `Cn1c(C(=O)N2CC(F)(F)C2)cc2ccc(-c3nc(Nc4ccc(-c5cn[nH]c5)cc4)c4occc4n3)cc21`: 80 nM; `N=C(N)N1CCC2(CC1)CCN(C(=O)c1cc3ccc(-c4nccc(Nc5ccc6[nH]ncc6c5)n4)cc3[nH]1)CC2`: 240 nM. Next, `O=C(C1CC(F)(F)C1)N1Cc2ccc(-c3cncc(Nc4ccc(-c5cn[nH]c5)cc4)n3)cc2C1`: 39 nM; `Cn1ccc2nc(-c3ccc4cc(C(=O)N5CC(F)(F)C5)n(C)c4c3)nc(Nc3ccc(-c4cn[nH]c4)cc3)c21`: 76 nM.

In the case of `COc1cc(-c2cn[nH]c2)ccc1Nc1ccnc(-c2ccc3c(c2)CN(C(=O)C2CC(F)(F)C2)C3)n1`, the IC50 is 21 nM. Turning to `COCCn1c(C(=O)N2CC(F)(F)C2)cc2ccc(-c3nccc(Nc4ccc(-c5cn[nH]c5)cc4)n3)cc21`, the IC50 is 355 nM. Next, `CN1Cc2nc(-c3ccc4c(c3)CN(C(=O)C3CC(F)(F)C3)C4)nc(Nc3ccc(-c4cn[nH]c4)cc3)c2C1`: 40 nM. In the case of `COc1cnc(-c2ccc3cc(C(=O)N4CC(F)(F)C4)[nH]c3c2)nc1Nc1ccc(-c2cn[nH]c2)cc1`, the IC50 is 23 nM. Next, `Cc1[nH]ncc1-c1ccc(Nc2nc(-c3ccc4c(c3)CN(C(=O)C3CC(F)(F)C3)C4)ncc2F)cc1`: 93 nM; `Cn1c(C(=O)N2CC(F)(F)C2)cc2ccc(-c3nc4c(c(Nc5ccc(-c6cn[nH]c6)cc5)n3)COC4)cc21`: 10 nM; `CC(C)NC(=O)c1cc2ccc(-c3nc(Cc4ccccc4)cc(Nc4ccc5[nH]ncc5c4)n3)cc2[nH]1`: 350 nM. Next, `O=C(C1CC(F)(F)C1)N1Cc2ccc(-c3nc(Nc4ccc(-c5cn[nH]c5)cc4)c4occc4n3)cc2C1`: 18 nM; `C[C@@H](NC(=O)c1cc2ccc(-c3nccc(Nc4ccc5[nH]ncc5c4)n3)cc2[nH]1)c1ccc(C(F)(F)F)nc1`: 90 nM; `O=C(C1CC(F)(F)C1)N1Cc2ccc(-c3nc4c(c(Nc5ccc(-c6cn[nH]c6)cc5)n3)CNC4)cc2C1`: 10 nM.

`O=C(NC1CCN(c2ccncc2Cl)CC1)c1cc2ccc(-c3nccc(Nc4ccc5[nH]ncc5c4)n3)cc2[nH]1`: the IC50 is 14 nM. Next, `CCn1c(C(=O)N2CC(F)(F)C2)cc2ccc(-c3nccc(Nc4ccc(-c5cn[nH]c5)cc4)n3)cc21`: 118 nM; `Cn1c(C(=O)N2CC(F)(F)C2)cc2ccc(-c3nc4c(c(Nc5ccc(-c6cn[nH]c6)cc5)n3)CNC4)cc21`: 4 nM; `COCn1c(C(=O)N2CC(F)(F)C2)cc2ccc(-c3ncc(F)c(Nc4ccc(-c5cn[nH]c5)cc4)n3)cc21`: 255 nM.

For `O=C(C1CC(F)(F)C1)N1Cc2ccc(-c3nc(Nc4ccc(-c5cn[nH]c5)cc4)c4[nH]ccc4n3)cc2C1`, the IC50 was 29 nM. Next, `Cn1c(C(=O)N2CC(F)(F)C2)cc2ccc(-c3nccc(Nc4ccc(-c5cn[nH]c5)cc4O)n3)cc21`: 34 nM. Next, `Cc1cnc(-c2ccc3cc(C(=O)N4CC(F)(F)C4)n(C)c3c2)nc1Nc1ccc(-c2cn[nH]c2)cc1`: 19 nM; `O=C(C1CC(F)(F)C1)N1Cc2ccc(-c3nc(Nc4ccc(-c5cn[nH]c5)cc4)c4sccc4n3)cc2C1`: 60 nM. Next, `O=C(N1CCc2ccc(-c3nccc(Nc4ccc(-c5cn[nH]c5)cc4)n3)cc2C1)N1CC(F)(F)C1`: 214 nM; `O=C(c1cc2ccc(-c3nccc(Nc4ccc(-c5cn[nH]c5)cc4)n3)cc2[nH]1)N1CCCC1`: 240 nM. Take `O=C(C1CC(F)(F)C1)N1Cc2ccc(-c3nc(Nc4ccc5[nH]ncc5c4)c4sccc4n3)cc2C1`: the IC50 was 129 nM.

As to `COCn1c(C(=O)N2CC(F)(F)C2)cc2ccc(-c3nc4c(c(Nc5ccc(-c6cn[nH]c6)cc5)n3)CNC4)cc21`, the concentration for half-maximal inhibition (IC50) was 27 nM. Next, `COCn1c(C(=O)N2CC(F)(F)C2)cc2ccc(-c3ncnc(Nc4ccc(-c5cn[nH]c5)cc4)n3)cc21`: 427 nM; `C#CC1CN(C(=O)c2cc3ccc(-c4nccc(Nc5ccc(-c6cn[nH]c6)cc5)n4)cc3n2C)C1`: 322 nM; `O=C(OC1CC(F)(F)C1)N1Cc2ccc(-c3ncc(F)c(Nc4ccc(-c5cn[nH]c5)cc4)n3)cc2C1`: 69 nM. Next, `CC1(C(=O)N2CCc3ccc(-c4ncc(F)c(Nc5ccc(-c6cn[nH]c6)cc5)n4)cc3C2)CC(F)(F)C1`: 331 nM. Next, `O=C(c1ccncc1)N1Cc2ccc(-c3nccc(Nc4ccc(-c5cn[nH]c5)cc4)n3)cc2C1`: 313 nM; `O=C(c1cc2ccc(-c3nccc(Nc4ccc(-c5cn[nH]c5)cc4)n3)cc2n1CC(F)F)N1CC(F)(F)C1`: 159 nM. `O=C(Oc1ccccc1)N1Cc2ccc(-c3nccc(Nc4ccc(-c5cn[nH]c5)cc4)n3)cc2C1`: the IC50 is 114 nM.
